Measured values as given in patent US4757012A, “Ascorbic acid intermediates and process enzymes” (Genentech, Inc., priority 1984, dated 1988).

Biological target: T1, 2,5-DKG reductase (Corynebacterium sp., UniProt P06632)
T1 construct: made in house; host or cells: Corynebacterium sp; ATCC 31090 (natural producer, native enzyme purified from cell paste, not recombinant)
Test: 2,5-DKG reductase kinetic / substrate specificity assay with purified enzyme
Format: biochemical, Corynebacterium sp. ATCC 31090
Settings: for Activity of the enzyme with the substance as substrate or cofactor: substrate specificity and cofactor requirements
Description: The following assay conditions were used to determine kinetic parameters: […]

T1 sequence (P06632 whole entry): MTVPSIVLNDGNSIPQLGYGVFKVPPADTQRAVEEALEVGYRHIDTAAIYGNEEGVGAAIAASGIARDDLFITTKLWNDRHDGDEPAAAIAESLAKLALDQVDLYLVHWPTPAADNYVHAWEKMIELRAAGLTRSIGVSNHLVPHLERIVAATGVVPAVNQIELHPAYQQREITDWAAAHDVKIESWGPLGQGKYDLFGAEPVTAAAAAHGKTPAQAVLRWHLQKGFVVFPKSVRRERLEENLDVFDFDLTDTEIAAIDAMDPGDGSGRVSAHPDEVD

| Structure (SMILES) | Activity of the enzyme with the substance as substrate or cofactor | Alteration of enzyme activity in the presence of the substance |
| --- | --- | --- |
| O=C(O)C(=O)[C@@H](O)[C@H](O)[C@H](O)CO [2-KDG, 2-keto-D-gluconic acid] | No activity | – |
| O=C(O)C(=O)[C@@H](O)[C@H](O)[C@@H](O)CO [2-KLG, 2-keto-L-gulonic acid] | No activity | – |
| O=C(CO)[C@@H](O)[C@H](O)[C@@H](O)C(=O)O [5-KDG, 5-keto-D-gluconic acid] | No activity | – |
| Nc1ncnc2c1ncn2[C@@H]1O[C@H](COP(=O)(O)OP(=O)(O)O)[C@@H](O)[C@H]1O [ADP] | – | No alteration of activity |
| Nc1ncnc2c1ncn2[C@@H]1O[C@H](COP(=O)(O)OP(=O)(O)OP(=O)(O)O)[C@@H](O)[C@H]1O [ATP] | – | No alteration of activity |
| [Ca+2] [Ca^++] | – | No alteration of activity |
| O=C(O)[C@H](O)[C@@H](O)[C@H](O)[C@H](O)CO [D-gluconic acid] | No activity | – |
| O=C(O)CN(CCN(CC(=O)O)CC(=O)O)CC(=O)O [EDTA] | – | No alteration of activity |
| [Mn+2] [MN^++] | – | No alteration of activity |
| [Mg+2] [Mg^++] | – | No alteration of activity |
| NC(=O)C1=CN([C@@H]2O[C@H](COP(=O)(O)OP(=O)(O)OC[C@H]3O[C@@H](n4cnc5c(N)ncnc54)[C@H](O)[C@@H]3O)[C@@H](O)[C@H]2O)C=CC1 [NADH] | No activity | – |
| [Zn+2] [Zn^++] | – | No alteration of activity |
| N[C@@H](CS)C(=O)O [cysteine] | – | No alteration of activity |
